# pIC50, pKd: −log10 of the molar value.
# Key:
# [1] = biological target: T1, CSF-1R kinase (Homo sapiens, UniProt P07333); experiment: Competition binding assay, CSF-1R Kd
# T1 construct: made in house; host or cells: T7 phage display or HEK-293 cells
# How it was run: (§1)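 Equilibrium Kd measured by competition against immobilized ligand; kinase as T7 phage fusion or HEK-293 DNA-tagged protein; 1 h RT; qPCR read-out of eluate.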
# [2] = biological target: T2, FLT3 kinase (Homo sapiens, UniProt P36888); experiment: Competition binding assay, FLT3 Kd
# T2 construct: made in house; host or cells: T7 phage display or HEK-293 cells
# T2 sequence (P36888 27-993): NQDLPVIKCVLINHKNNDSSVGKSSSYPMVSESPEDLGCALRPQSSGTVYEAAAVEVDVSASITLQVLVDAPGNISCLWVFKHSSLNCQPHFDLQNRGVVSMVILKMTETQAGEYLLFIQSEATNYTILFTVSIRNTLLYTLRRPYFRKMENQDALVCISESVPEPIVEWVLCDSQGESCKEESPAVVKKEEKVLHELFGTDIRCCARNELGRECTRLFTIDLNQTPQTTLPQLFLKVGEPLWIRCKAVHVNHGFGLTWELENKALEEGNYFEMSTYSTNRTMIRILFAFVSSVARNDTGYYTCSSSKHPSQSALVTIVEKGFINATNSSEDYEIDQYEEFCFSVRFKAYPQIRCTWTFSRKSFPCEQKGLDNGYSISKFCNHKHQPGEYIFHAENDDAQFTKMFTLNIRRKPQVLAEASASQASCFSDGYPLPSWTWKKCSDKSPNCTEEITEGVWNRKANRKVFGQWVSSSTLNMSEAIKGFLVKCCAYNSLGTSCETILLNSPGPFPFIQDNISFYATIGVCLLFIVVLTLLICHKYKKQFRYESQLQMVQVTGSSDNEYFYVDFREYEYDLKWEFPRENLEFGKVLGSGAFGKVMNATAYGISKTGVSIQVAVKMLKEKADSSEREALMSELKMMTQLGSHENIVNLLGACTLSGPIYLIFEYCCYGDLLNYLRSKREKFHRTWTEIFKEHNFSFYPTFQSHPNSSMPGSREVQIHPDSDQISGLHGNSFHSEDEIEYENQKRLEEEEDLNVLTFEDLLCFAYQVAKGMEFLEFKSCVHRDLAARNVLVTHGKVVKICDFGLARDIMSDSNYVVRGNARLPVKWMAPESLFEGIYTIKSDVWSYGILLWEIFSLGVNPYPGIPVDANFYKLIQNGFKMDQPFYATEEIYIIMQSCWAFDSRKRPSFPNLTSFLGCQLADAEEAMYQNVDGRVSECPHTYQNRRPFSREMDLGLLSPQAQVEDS
# How it was run: as §1
# [3] = biological target: kinase panel containing either 359 or 386 distinct kinases; experiment: Selectivity score S10 from competition binding against a panel of kinases; conditions: compounds at 10 μM; panel of 386 distinct kinases
# How it was run: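 Compounds were tested at 10 μM in competition binding against T7 phage-fused or HEK-293-expressed DNA-tagged kinases with immobilized affinity ligands, 1 h at room temperature. Bound kinase was quantified by qPCR as percent of DMSO control; S10 is the fraction of distinct kinases (mutants excluded) with POC below 10.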
# [4] = tested on: MV4-11 cells; experiment: MV4-11 cell proliferation assay (Alamar Blue); assay type: cell-based; conditions: Homo sapiens, MV4-11, 72 h, 3 days incubation
# How it was run: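 Flt3-ITD MV4-11 cells were serum-starved overnight in Iscove's with 0.5% FBS, then given compound at 9 half-log concentrations (0.5% DMSO) for 3 days at 37° C. Alamar Blue reduction was read after 3 h by fluorescence (560/590 nm). IC50 is the mean of duplicates versus negative control.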
# [5] = biological target: T3, KIT kinase (Homo sapiens, UniProt P10721); experiment: Competition binding assay, KIT Kd
# T3 construct: made in house; host or cells: T7 phage display or HEK-293 cells
# How it was run: as §1
# T1 sequence (P07333 20-972): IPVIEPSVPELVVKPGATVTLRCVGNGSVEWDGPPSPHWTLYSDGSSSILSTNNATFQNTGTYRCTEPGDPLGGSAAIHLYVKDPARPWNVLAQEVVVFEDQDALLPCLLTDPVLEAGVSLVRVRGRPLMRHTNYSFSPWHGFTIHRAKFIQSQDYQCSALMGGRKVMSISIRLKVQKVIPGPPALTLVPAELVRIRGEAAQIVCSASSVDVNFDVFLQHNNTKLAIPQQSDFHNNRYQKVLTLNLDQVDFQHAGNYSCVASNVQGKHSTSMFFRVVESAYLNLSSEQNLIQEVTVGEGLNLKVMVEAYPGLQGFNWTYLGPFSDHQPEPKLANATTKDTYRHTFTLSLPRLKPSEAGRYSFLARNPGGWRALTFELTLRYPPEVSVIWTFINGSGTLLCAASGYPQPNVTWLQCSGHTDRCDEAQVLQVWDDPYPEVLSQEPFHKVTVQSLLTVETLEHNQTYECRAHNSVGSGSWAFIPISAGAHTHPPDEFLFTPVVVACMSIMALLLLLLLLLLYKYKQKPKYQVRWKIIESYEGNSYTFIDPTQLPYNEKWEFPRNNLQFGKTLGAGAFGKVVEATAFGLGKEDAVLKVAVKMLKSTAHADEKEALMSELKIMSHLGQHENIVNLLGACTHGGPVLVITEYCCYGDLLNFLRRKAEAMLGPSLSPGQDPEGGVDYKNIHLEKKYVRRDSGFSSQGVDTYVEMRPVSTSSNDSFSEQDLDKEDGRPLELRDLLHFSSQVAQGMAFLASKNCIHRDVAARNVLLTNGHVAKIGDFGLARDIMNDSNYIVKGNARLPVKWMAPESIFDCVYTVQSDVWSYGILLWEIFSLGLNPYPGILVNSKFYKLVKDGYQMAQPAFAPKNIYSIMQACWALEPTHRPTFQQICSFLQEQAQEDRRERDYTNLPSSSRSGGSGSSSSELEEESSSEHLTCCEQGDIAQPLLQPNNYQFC
# T3 sequence (P10721 26-976): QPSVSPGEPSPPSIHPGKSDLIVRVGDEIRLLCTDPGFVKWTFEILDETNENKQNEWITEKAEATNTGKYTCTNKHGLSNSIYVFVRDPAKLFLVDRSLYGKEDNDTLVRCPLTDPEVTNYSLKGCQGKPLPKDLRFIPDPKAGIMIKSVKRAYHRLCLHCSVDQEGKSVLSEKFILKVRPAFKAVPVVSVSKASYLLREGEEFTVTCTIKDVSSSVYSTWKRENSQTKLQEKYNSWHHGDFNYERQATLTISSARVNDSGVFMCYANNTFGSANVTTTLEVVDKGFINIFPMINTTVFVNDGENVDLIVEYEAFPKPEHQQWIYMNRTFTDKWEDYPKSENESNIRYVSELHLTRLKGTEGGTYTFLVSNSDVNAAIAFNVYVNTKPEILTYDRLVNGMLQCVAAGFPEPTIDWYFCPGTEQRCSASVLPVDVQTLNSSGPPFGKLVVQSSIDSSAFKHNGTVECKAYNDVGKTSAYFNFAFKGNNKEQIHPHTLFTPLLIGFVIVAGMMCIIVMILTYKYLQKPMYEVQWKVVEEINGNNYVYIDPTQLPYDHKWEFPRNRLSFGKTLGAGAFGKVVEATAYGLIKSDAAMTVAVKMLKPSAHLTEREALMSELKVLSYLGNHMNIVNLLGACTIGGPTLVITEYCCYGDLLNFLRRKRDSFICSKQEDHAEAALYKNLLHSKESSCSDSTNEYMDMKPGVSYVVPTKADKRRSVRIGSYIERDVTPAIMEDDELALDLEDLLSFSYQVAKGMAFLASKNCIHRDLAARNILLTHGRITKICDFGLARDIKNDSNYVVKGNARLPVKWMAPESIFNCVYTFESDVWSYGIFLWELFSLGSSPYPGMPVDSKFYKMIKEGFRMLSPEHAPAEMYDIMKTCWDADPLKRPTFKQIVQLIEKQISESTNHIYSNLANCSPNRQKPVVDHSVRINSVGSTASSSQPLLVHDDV
SMILES,pKd [1],pKd [2],Kinase specificty: S(10)-386 panel [3],pIC50 [4],pKd [5]
"CC1(c2cc(NC(=O)Cc3ccc(-c4ccc(N)nc4)cc3)no2)CCC1.CS(=O)(=O)O [Example 144, 5-(4-(2-((5-(1-methylcyclobutyl)isoxazol-3-yl)amino)-2-oxoethyl)phenyl)pyridin-2-aminium methanesulfonate]",≥ 8.00,≥ 9.00,B (0.1<B≦0.2 nM),≥ 9.00,≥ 9.00
"CS(=O)(=O)O.Cc1cc(-c2ccc(CC(=O)Nc3cc(C4(C)COC4)on3)cc2)cnc1N [Example 145, 3-methyl-5-(4-(2-((5-(3-methyloxetan-3-yl)isoxazol-3-yl)amino)-2-oxoethyl)phenyl)pyridin-2-aminium methanesulfonate]",≥ 8.00,≥ 9.00,A (A≦0.1),7.00 to 8.00,8.00 to 9.00
"CC1(c2cc(NC(=O)Cc3ccc(-c4cnc(N)c(F)c4)cc3)no2)COC1.CS(=O)(=O)O [Example 146, 3-fluoro-5-(4-(2-((5-(3-methyloxetan-3-yl)isoxazol-3-yl)amino)-2-oxoethyl)phenyl)pyridin-2-aminium methanesulfonate]",≥ 8.00,≥ 9.00,A (A≦0.1),8.00 to 9.00,≥ 9.00
"CC(C)(C)c1cc(NC(=O)Cc2ccc(-c3cnc4[nH]c(=O)[nH]c4c3)cc2)no1 [Example 147, N-(5-tert-butylisoxazol-3-yl)-2-(4-(2-oxo-2,3-dihydro-1H-imidazo[4,5-b]pyridin-6-yl)phenyl)acetamide]",≥ 8.00,8.00 to 9.00,B (0.1<B≦0.2 nM),≥ 9.00,8.00 to 9.00
"CC(C)(C)c1cc(NC(=O)Cc2ncc(-c3ccc(N)nc3)cc2F)no1.CS(=O)(=O)O [Example 148, 6′-(2-(5-tert-butylisoxazol-3-ylamino)-2-oxoethyl)-5′-fluoro-3,3′-bipyridin-6-aminium methanesulfonate]",≥ 8.00,≥ 9.00,A (A≦0.1),8.00 to 9.00,≥ 9.00
"Nc1ccc(-c2ccc(CC(=O)Nc3cc(C4(C(F)F)CC4)on3)cc2)cn1 [Example 149, 2-(4-(6-aminopyridin-3-yl)phenyl)-N-(5-(1-(difluoromethyl)cyclopropyl)isoxazol-3-yl)acetamide]",≥ 8.00,≥ 9.00,B (0.1<B≦0.2 nM),8.00 to 9.00,≥ 9.00
"CC(C)(C)c1cc(NC(=O)Cc2ccc(-c3cnc(N)cc3Cl)cc2)no1.CS(=O)(=O)O [Example 150, 5-(4-(2-(5-tert-butylisoxazol-3-ylamino)-2-oxoethyl)phenyl)-4-chloropyridin-2-aminium methanesulfonate]",≥ 8.00,≥ 9.00,A (A≦0.1),8.00 to 9.00,8.00 to 9.00
"CC(C)(C)c1cc(NC(=O)Cc2ccc(-c3cnc(N)cc3F)cc2)no1.CS(=O)(=O)O [Example 151, 5-(4-(2-(5-tert-butylisoxazol-3-ylamino)-2-oxoethyl)phenyl)-4-fluoropyridin-2-aminium methanesulfonate]",≥ 8.00,≥ 9.00,B (0.1<B≦0.2 nM),8.00 to 9.00,7.00 to 8.00
"CC(C)(C)c1cc(NC(=O)Cc2ccc(-c3cc(F)c(N)nc3F)cc2)no1.CS(=O)(=O)O [Example 152, 5-(4-(2-(5-tert-butylisoxazol-3-ylamino)-2-oxoethyl)phenyl)-3,6-difluoropyridin-2-aminium methanesulfonate]",≥ 8.00,≥ 9.00,A (A≦0.1),≥ 9.00,8.00 to 9.00
CC(F)(F)C1(c2cc(NC(=O)Cc3ccc(-c4ccc(N)nc4)cc3)no2)CC1 [Example 153],≥ 8.00,≥ 9.00,B (0.1<B≦0.2 nM),≥ 9.00,8.00 to 9.00
CC(C)(C)c1cc(NC(=O)Cc2ccc(-c3ccc(N)nc3)nc2)no1 [Example 155],6.30 to 7.00,≥ 9.00,A (A≦0.1),7.00 to 8.00,≥ 9.00
CC(C)(C)c1cc(NC(=O)Cc2ccc(-c3cnc(N)cc3C(F)(F)F)cc2)no1 [Example 156],7.00 to 8.00,≥ 9.00,A (A≦0.1),7.00 to 8.00,8.00 to 9.00
COc1cc(N)ncc1-c1ccc(CC(=O)Nc2cc(C(C)(C)C)on2)cc1 [Example 157],7.00 to 8.00,≥ 9.00,A (A≦0.1),8.00 to 9.00,8.00 to 9.00
Cc1cc(-c2ccc(CC(=O)Nc3cc(C4(C)CC4)on3)cc2)cnc1N [Example 158],≥ 8.00,≥ 9.00,A (A≦0.1),8.00 to 9.00,≥ 9.00
CC(F)(F)C1(c2cc(NC(=O)Cc3ccc(-c4ccc(N)nc4F)cc3)no2)CC1 [Example 159],≥ 8.00,8.00 to 9.00,A (A≦0.1),≥ 9.00,8.00 to 9.00
CC1(c2cc(NC(=O)Cc3ccc(-c4cnc(N)c(Cl)c4)cc3)no2)CC1 [Example 160],≥ 8.00,≥ 9.00,B (0.1<B≦0.2 nM),≥ 9.00,≥ 9.00
CC1(c2cc(NC(=O)Cc3ccc(-c4cnc(N)c(C(F)(F)F)c4)cc3)no2)CC1 [Example 161],≥ 8.00,≥ 9.00,B (0.1<B≦0.2 nM),≥ 9.00,8.00 to 9.00
Cc1nc(N)ccc1-c1ccc(CC(=O)Nc2cc(C3(C)CC3)on2)cc1 [Example 162],≥ 8.00,≥ 9.00,A (A≦0.1),7.00 to 8.00,≥ 9.00
CC(C)(C)c1cc(NC(=O)Cc2ccc(-c3cnc(N)c(C(F)F)c3)cc2)no1 [Example 163],≥ 8.00,≥ 9.00,B (0.1<B≦0.2 nM),≥ 9.00,8.00 to 9.00
COc1cc(-c2ccc(CC(=O)Nc3cc(C4(C)CC4)on3)cc2)cnc1N [Example 164],≥ 8.00,≥ 9.00,B (0.1<B≦0.2 nM),8.00 to 9.00,≥ 9.00
Cc1nc(N)cnc1-c1ccc(CC(=O)Nc2cc(C(C)(C)C)on2)cc1 [Example 165],7.00 to 8.00,≥ 9.00,A (A≦0.1),7.00 to 8.00,8.00 to 9.00
CC(C)(C)c1cc(NC(=O)Cc2ccc(-c3ccc(N)nc3C#N)cc2)no1 [Example 166],7.00 to 8.00,≥ 9.00,A (A≦0.1),7.00 to 8.00,8.00 to 9.00
Nc1ccc(-c2ccc(CC(=O)Nc3cc(C4(C(F)(F)F)CCC4)on3)cc2)c(F)n1 [Example 167],≥ 8.00,≥ 9.00,A (A≦0.1),≥ 9.00,8.00 to 9.00

# — patent US20130035326A1 (AMBIT BIOSCIENCES CORPORATION, priority 2009, published 2013)
